Here are results for 23 compounds from US20260365682A1, “MODULATORS OF TNF-ALPHA ACTIVITY” (Forward Therapeutics, Inc., priority 2022, published 2026).

In the test the target is T1, TNF-α (Homo sapiens, UniProt P01375).
T1 construct: purchased R&D 210-TA-020/CF
As to the kind of experiment: TNF-α Induced HEK Blue Cellular Assay (secreted alkaline phosphatase expression, QUANTI-Blue). In kind it is cell-based. The settings on record: HEK Blue TNFα reporter cells, TNF-α 100 μg/ml, 24 hrs at 37° C., inhibition of secreted alkaline phosphatase. In a few lines: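 Compound was serially diluted from […] to 0.5 nM final, then incubated with 10,000 HEK Blue TNFα reporter cells per well and […] TNF-α for 24 h at 37° C. SEAP output was read by QUANTI-Blue absorbance at 620 nm. Inhibition was background-corrected against DMSO controls with and without stimulation, and IC50 was fitted with a 4-parameter logistic equation.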

Where two headings read alike, the source gives them in different places.

T1 sequence (P01375 77-233 limits assumed): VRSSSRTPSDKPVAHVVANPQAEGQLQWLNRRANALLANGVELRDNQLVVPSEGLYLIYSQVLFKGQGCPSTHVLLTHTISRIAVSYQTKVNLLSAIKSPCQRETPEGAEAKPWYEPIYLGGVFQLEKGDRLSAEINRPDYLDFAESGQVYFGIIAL

Consider `[2H]C([2H])([2H])N1C(=O)c2cccc(OC(F)F)c2[C@H]2C[C@@H]1c1nc3ccc(C#CCNC(C)(C)C)cc3n12` [Example 70, (7R,14R)-11-(3-(tert-butylamino)prop-1-yn-1-yl)-1-(difluoromethoxy)-6-(methyl-d3)-6,7-dihydro-7,14-methanobenzo[f]benzo[4,5]imidazo[1,2-a][1,4]diazocin-5(14H)-one], for which the IC50 (read-out: IC50 value) lay in the range of 10000 to 30000 nM. Regarding `[2H]C([2H])([2H])N1C(=O)c2cccc(OC(F)F)c2[C@H]2C[C@@H]1c1nc3ccc(C#CC4CCNC4)cc3n12` (stereo partly drawn) [Example 71, (7R,14R)-1-(difluoromethoxy)-6-(methyl-d3)-11-(pyrrolidin-3-ylethynyl)-6,7-dihydro-7,14-methanobenzo[f]benzo[4,5]imidazo[1,2-a][1,4]diazocin-5(14H)-one], for the setting “read-out: IC50 value”, the concentration for half-maximal inhibition (IC50) is 100 to 1000 nM.

For the compound `[2H]C([2H])([2H])N1C(=O)c2cccc(OC(F)F)c2[C@H]2C[C@@H]1c1nc3ccc(C#CCOC(C)CO)cc3n12` (stereo partly drawn) [Example 72, (7R,14R)-1-(difluoromethoxy)-11-(3-((1-hydroxypropan-2-yl)oxy)prop-1-yn-1-yl)-6-(methyl-d3)-6,7-dihydro-7,14-methanobenzo[f]benzo[4,5]imidazo[1,2-a][1,4]diazocin-5(14H)-one], the IC50 (read-out: IC50 value) is less than 100 nM. Consider `[2H]C([2H])([2H])N1C(=O)c2cccc(OC(F)F)c2[C@H]2C[C@@H]1c1nc3ccc(C#CCOCC(C)O)cc3n12` (stereo partly drawn) [Example 73, (7R,14R)-1-(difluoromethoxy)-11-(3-(2-hydroxypropoxy)prop-1-yn-1-yl)-6-(methyl-d3)-6,7-dihydro-7,14-methanobenzo[f]benzo[4,5]imidazo[1,2-a][1,4]diazocin-5(14H)-one], for which the half-maximal inhibitory concentration (IC50) (read-out: IC50 value) is less than 100 nM. Regarding `[2H]C([2H])([2H])N1C(=O)c2cccc(OC(F)F)c2[C@H]2C[C@@H]1c1nc3ccc(C#CCOC(C)C)cc3n12` [Example 74, (7R,14R)-1-(difluoromethoxy)-11-(3-isopropoxyprop-1-yn-1-yl)-6-(methyl-d3)-6,7-dihydro-7,14-methanobenzo[f]benzo[4,5]imidazo[1,2-a][1,4]diazocin-5(14H)-one], the concentration for half-maximal inhibition (IC50) (read-out: IC50 value) is less than 100 nM. The same measure, in the same setting: as for `[2H]C([2H])([2H])N1C(=O)c2cccc(OC(F)F)c2[C@H]2C[C@@H]1c1nc3ccc(C#CC(C)C)cc3n12` [Example 75, (7R,14R)-1-(difluoromethoxy)-6-(methyl-d3)-11-(3-methylbut-1-yn-1-yl)-6,7-dihydro-7,14-methanobenzo[f]benzo[4,5]imidazo[1,2-a][1,4]diazocin-5(14H)-one], the figure is 100 to 1000 nM; as for `[2H]C([2H])([2H])N1C(=O)c2cccc(OC(F)F)c2[C@H]2C[C@@H]1c1nc3ccc(C#CC4CCN(C)C4)cc3n12` (stereo partly drawn) [Example 76, (7R,14R)-1-(difluoromethoxy)-6-(methyl-d3)-11-((1-methylpyrrolidin-3-yl)ethynyl)-6,7-dihydro-7,14-methanobenzo[f]benzo[4,5]imidazo[1,2-a][1,4]diazocin-5(14H)-one], less than 100 nM; as for `[2H]C([2H])([2H])N1C(=O)c2cccc(OC(F)F)c2[C@H]2C[C@@H]1c1nc3ccc(C#CCCOC)cc3n12` [Example 77, (7R,14R)-1-(difluoromethoxy)-11-(4-methoxybut-1-yn-1-yl)-6-(methyl-d3)-6,7-dihydro-7,14-methanobenzo[f]benzo[4,5]imidazo[1,2-a][1,4]diazocin-5(14H)-one], less than 100 nM. For the compound `[2H]C([2H])([2H])N1C(=O)c2cccc(OC(F)F)c2[C@H]2C[C@@H]1c1nc3ccc(C#CC(C)OCC)cc3n12` (stereo partly drawn) [Example 78, (7R,14R)-1-(difluoromethoxy)-11-(3-ethoxybut-1-yn-1-yl)-6-(methyl-d3)-6,7-dihydro-7,14-methanobenzo[f]benzo[4,5]imidazo[1,2-a][1,4]diazocin-5(14H)-one], the half-inhibitory concentration (IC50) (read-out: IC50 value) lay in the range of 100 to 1000 nM. Turning to `[2H]C([2H])([2H])N1C(=O)c2cccc(OC(F)F)c2[C@H]2C[C@@H]1c1nc3ccc(C#CCOc4ccccc4)cc3n12` [Example 79, (7R,14R)-1-(difluoromethoxy)-6-(methyl-d3)-11-(3-phenoxyprop-1-yn-1-yl)-6,7-dihydro-7,14-methanobenzo[f]benzo[4,5]imidazo[1,2-a][1,4]diazocin-5(14H)-one], under “read-out: IC50 value”, the half-inhibitory concentration (IC50) lay in the range of 100 to 1000 nM. The same measure, in the same setting: as for `[2H]C([2H])([2H])N1C(=O)c2cccc(OC(F)F)c2[C@H]2C[C@@H]1c1nc3ccc(C#CC4COC4)cc3n12` [Example 80, (7R,14R)-1-(difluoromethoxy)-6-(methyl-d3)-11-(oxetan-3-ylethynyl)-6,7-dihydro-7,14-methanobenzo[f]benzo[4,5]imidazo[1,2-a][1,4]diazocin-5(14H)-one], the figure is less than 100 nM; as for `[2H]C([2H])([2H])N1C(=O)c2cccc(OC(F)F)c2[C@H]2C[C@@H]1c1nc3ccc(C#CCC4(O)COC4)cc3n12` [Example 81, (7R,14R)-1-(difluoromethoxy)-11-(3-(3-hydroxyoxetan-3-yl)prop-1-yn-1-yl)-6-(methyl-d3)-6,7-dihydro-7,14-methanobenzo[f]benzo[4,5]imidazo[1,2-a][1,4]diazocin-5(14H)-one], 100 to 1000 nM; as for `[2H]C([2H])([2H])N1C(=O)c2cccc(OC(F)F)c2[C@H]2C[C@@H]1c1nc3ccc(C#CCC(C)(C)O)cc3n12` [Example 82, (7R,14R)-1-(difluoromethoxy)-11-(4-hydroxy-4-methylpent-1-yn-1-yl)-6-(methyl-d3)-6,7-dihydro-7,14-methanobenzo[f]benzo[4,5]imidazo[1,2-a][1,4]diazocin-5(14H)-one], 10000 to 30000 nM.

On to `[2H]C([2H])([2H])N1C(=O)c2cccc(OC(F)F)c2[C@H]2C[C@@H]1c1nc3ccc(C#CCCCO)cc3n12` [Example 83, (7R,14R)-1-(difluoromethoxy)-11-(5-hydroxypent-1-yn-1-yl)-6-(methyl-d3)-6,7-dihydro-7,14-methanobenzo[f]benzo[4,5]imidazo[1,2-a][1,4]diazocin-5(14H)-one], for which, under “read-out: IC50 value”, the IC50 was less than 100 nM.

Compound `[2H]C([2H])([2H])N1C(=O)c2cccc(OC(F)F)c2[C@H]2C[C@@H]1c1nc3ccc(C#CCC)cc3n12` [Example 84, (7R,14R)-11-(but-1-yn-1-yl)-1-(difluoromethoxy)-6-(methyl-d3)-6,7-dihydro-7,14-methanobenzo[f]benzo[4,5]imidazo[1,2-a][1,4]diazocin-5(14H)-one] had an IC50 (IC50 value) of less than 100 nM. For the compound `[2H]C([2H])([2H])N1C(=O)c2cccc(OC(F)F)c2[C@H]2C[C@@H]1c1nc3ccc(C#CC4CC4)cc3n12` [Example 85, (7R,14R)-11-(cyclopropylethynyl)-1-(difluoromethoxy)-6-(methyl-d3)-6,7-dihydro-7,14-methanobenzo[f]benzo[4,5]imidazo[1,2-a][1,4]diazocin-5(14H)-one], the concentration for half-maximal inhibition (IC50) (read-out: IC50 value) is less than 100 nM.

In the case of `[2H]C([2H])([2H])N1C(=O)c2cccc(OC(F)F)c2[C@H]2C[C@@H]1c1nc3ccc(C#CCCCC#N)cc3n12` [Example 86, 6-((7R,14R)-1-(difluoromethoxy)-6-(methyl-d3)-5-oxo-5,6,7,14-tetrahydro-7,14-methanobenzo[f]benzo[4,5]imidazo[1,2-a][1,4]diazocin-11-yl)hex-5-ynenitrile], the IC50 (read-out: IC50 value) is less than 100 nM.

Take `[2H]C([2H])([2H])N1C(=O)c2cccc(OC(F)F)c2[C@H]2C[C@@H]1c1nc3ccc(C#CCCC#N)cc3n12` [Example 87, 5-((7R,14R)-1-(difluoromethoxy)-6-(methyl-d3)-5-oxo-5,6,7,14-tetrahydro-7,14-methanobenzo[f]benzo[4,5]imidazo[1,2-a][1,4]diazocin-11-yl)pent-4-ynenitrile]: for the setting “read-out: IC50 value”, the IC50 was less than 100 nM. On to `[2H]C([2H])([2H])N1C(=O)c2cccc(OC(F)F)c2[C@H]2C[C@@H]1c1nc3ccc(C#CCCC)cc3n12` [Example 88, (7R,14R)-1-(difluoromethoxy)-6-(methyl-d3)-11-(pent-1-yn-1-yl)-6,7-dihydro-7,14-methanobenzo[f]benzo[4,5]imidazo[1,2-a][1,4]diazocin-5(14H)-one], for which the concentration for half-maximal inhibition (IC50) (IC50 value) was less than 100 nM. Under “IC50 value”, `[2H]C([2H])([2H])N1C(=O)c2cccc(OC(F)F)c2[C@H]2C[C@@H]1c1nc3ccc(C#CC(=O)NCC(F)(F)F)cc3n12` [Example 89, 3-((7R,14R)-1-(difluoromethoxy)-6-(methyl-d3)-5-oxo-5,6,7,14-tetrahydro-7,14-methanobenzo[f]benzo[4,5]imidazo[1,2-a][1,4]diazocin-11-yl)-N-(2,2,2-trifluoroethyl)propiolamide] gave a concentration for half-maximal inhibition (IC50) of 100 to 1000 nM. With `[2H]C([2H])([2H])N1C(=O)c2cccc(OC(F)F)c2[C@H]2C[C@@H]1c1nc3ccc(C#CC[Si](C)(C)C)cc3n12` [Example 90, (7R,14R)-1-(difluoromethoxy)-6-(methyl-d3)-11-(3-(trimethylsilyl)prop-1-yn-1-yl)-6,7-dihydro-7,14-methanobenzo[f]benzo[4,5]imidazo[1,2-a][1,4]diazocin-5(14H)-one], the IC50 (read-out: IC50 value) was less than 100 nM. The same measure, in the same setting: under `[2H]C([2H])([2H])N1C(=O)c2cccc(OC(F)F)c2[C@H]2C[C@@H]1c1nc3ccc(C#CCCCC)cc3n12` [Example 91, (7R,14R)-1-(difluoromethoxy)-11-(hex-1-yn-1-yl)-6-(methyl-d3)-6,7-dihydro-7,14-methanobenzo[f]benzo[4,5]imidazo[1,2-a][1,4]diazocin-5(14H)-one] stands less than 100 nM; under `[2H]C([2H])([2H])N1C(=O)c2cccc(OC(F)F)c2[C@H]2C[C@@H]1c1nc3ccc(C#CCCCCO)cc3n12` [Example 92, (7R,14R)-1-(difluoromethoxy)-11-(6-hydroxyhex-1-yn-1-yl)-6-(methyl-d3)-6,7-dihydro-7,14-methanobenzo[f]benzo[4,5]imidazo[1,2-a][1,4]diazocin-5(14H)-one], less than 100 nM.
